According to patent US9084812B2, “Composition useful for the prevention or reduction of the progression of prostate cancer” (SIGMA-TAU INDUSTRIE FARMACEUTICHE RIUNITE S.P.A., priority 2008, dated 2015):
Values joined by “and” are separate entries in the source; they are usually repeats but may differ in a detail not shown here. Equal entries are not always repeated.

Columns and labels:
LNCaP cells = assay: MTT colorimetric cell proliferation assay, LNCaP; assay type: cell-based, human; parameters: Absorbance 540 nm, single wells (N° 1-10) / Absorbance 540 nm, Mean / LNCaP cell proliferation, Mean: unit not given here; conditions: for % inhib: vs control
Procedure: (§1) For the experiments reported in the following established human prostate carcinoma cell lines LNCaP and PC3 (obtained from the American Type Culture Collection Rockville, Md.) were used. The LNCaP cells were cultured in RPMI 1640 medium (Life Technologies, Rockville, Md.), supplemented with 10% Fetal Bovine Serum (FBS) and 1% Penicillin and Streptomycin. The cells were incubated at 37 degree C. in a humidified atmosphere of 5% CO2 in air. Both sets of cell cultures were grown to 80% confluence in 10 cm tissue culture flasks and split 1:8. The cells were plated in 96 cell plates and allowed to attach and reach 60-70% confluence before being used for experimentation. […] Cells that were used as control were incubated with same amount of PBS in complete cell medium. The effects of lycopene (5 mmol/L], selenium (30 ng/ml), zinc (10 μg/ml), serenoa (10 μg/ml), and soya isoflavon (10 μg/ml) were also tested by adding them to the cell culture alone or in combination with the green tea extract and pomegranate extract. The cellular proliferation of the cells was determined using the 3-(4,5-dimethylthiazol-2-yl)-2,5-diphenyltetrazolium (MIT) colorimetric assay following 24 hours of incubation at 37° C. with or without the test agents. The MTT ([…]) was added to all the wells and incubated for a further 2 hr. The plate was than centrifuged at 500×g for 5 min at 4 degree C. The MIT solution was removed from the wells by careful aspiration and buffered DMSO (0.1 ml) was added to each of the wells and plates shaken for 15 mins. The absorbance was measured on a microplate reader at the wavelength of 540 nm. The effect of each compound alone and in combination on cell growth was assessed as the percentage of cell viability in which the untreated control cells were taken as those being completely viable and allowed to grow freely.

PC3 cells = assay: MTT colorimetric cell proliferation assay, PC3; assay type: cell-based, human; parameters: Absorbance 540 nm, single wells (N° 1-8) / Absorbance 540 nm, Mean / PC3 cell proliferation, single wells (N° 1-8) / PC3 cell proliferation, Mean: unit not given here; conditions: for Absorbance 540 nm, single wells (N° 1-8): lycopene 5 mmol/L, selenium 30 ng/ml, zinc 10 μg/ml; for % inhib: vs control
Procedure: as §1

[1] = Table 1, 24 hours incubation, mean of 10 wells
[2] = Table 2, 24 hours incubation, green tea 40 μg/ml, pomegranate 40 μg/ml
[3] = Table 2, 24 hours incubation, mean of 8 wells

Compound	Absorbance 540 nm, single wells (N° 1-10) (LNCaP cells; Table 1, 24 hours incubation, green tea 40 μg/ml, pomegranate 40 μg/ml, lycopene 5 mmol/L, selenium 30 ng/ml, zinc 10 μg/ml)	Absorbance 540 nm, Mean (LNCaP cells; [1])	% inhib (LNCaP cells; Table 1, 24 hours incubation) [%]	Absorbance 540 nm, single wells (N° 1-8) (PC3 cells; [2])	Absorbance 540 nm, Mean (PC3 cells; [3])	% inhib (PC3 cells; Table 2, 24 hours incubation) [%]	LNCaP cell proliferation, Mean (LNCaP cells; Table 3, 24 hours incubation, mean of 10 wells)	% inhib (LNCaP cells; Table 3, 24 hours incubation) [%]	PC3 cell proliferation, single wells (N° 1-8) (PC3 cells; Table 4, 24 hours incubation, green tea 40 μg/ml, pomegranate 40 μg/ml, serenoa 10 μg/ml, soya isoflavon 10 μg/ml, L-carnitine)	PC3 cell proliferation, Mean (PC3 cells; Table 4, 24 hours incubation, mean of 8 wells)	% inhib (PC3 cells; Table 4, 24 hours incubation) [%]
CC(C)=CCC/C(C)=C/C=C/C(C)=C/C=C/C(C)=C/C=C/C=C(C)/C=C/C=C(C)/C=C/C=C(\C)CCC=C(C)C [C, lycopene]	312 and 317 and 301 and 329 and 315 and 327 and 353 and 341	324	6.4	377 and 314 and 322 and 309 and 299 and 316 and 382 and 308	328	11.4					
[Se] [D, selenium]		311	9.8	309 and 341 and 345 and 286 and 292 and 313 and 321 and 374	323	12.7					
[Zn] [E, zinc]		325	5.7	355 and 322 and 395 and 344 and 312 and 321 and 339	342	7.8					
C[N+](C)(C)C[C@H](O)CC(=O)[O-] [H, L-carnitine]							347	3.3	366 and 341 and 387 and 320 and 378 and 392 and 385	369	2.6
